Reference: ChEMBL document CHEMBL5365484, “Discovery and Characterization of Novel CNS-Penetrant GPR55 Agonists” (J Med Chem, 2023)
The source made the active and inactive calls. The calls are words filed in the database; no cut-off is given here.

Columns and labels:
[1] = Metabolic stability in rat liver microsomes assessed as intrinsic clearance at 1 uM preincubated for 60 mins followed by NADPH addition and measured after 60 mins by LC-MS/MS analysis; assay type: ADME, Microsome; conditions: time 120 min, read-out: CLH
[2] = biological target: G-protein coupled receptor 55 (Homo sapiens, UniProt Q9Y2T6); experiment: Agonist activity at human GPR55 expressed in human HEK293 cells assessed as effect on calcium flux incubated for 5 mins by FLIPR analysis; assay type: functional, cell-based
Sequence of G-protein coupled receptor 55 (Q9Y2T6 whole entry): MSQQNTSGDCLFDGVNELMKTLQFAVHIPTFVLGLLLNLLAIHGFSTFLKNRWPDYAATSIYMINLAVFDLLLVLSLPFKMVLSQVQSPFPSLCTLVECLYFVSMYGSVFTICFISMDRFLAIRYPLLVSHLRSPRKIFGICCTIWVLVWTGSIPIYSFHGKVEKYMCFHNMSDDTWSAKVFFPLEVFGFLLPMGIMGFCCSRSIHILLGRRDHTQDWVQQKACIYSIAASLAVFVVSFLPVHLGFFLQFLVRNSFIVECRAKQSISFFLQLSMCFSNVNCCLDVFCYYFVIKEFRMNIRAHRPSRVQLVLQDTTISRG

[3] = Agonist activity at rat GPR55 expressed in human HEK293 cells assessed as effect on calcium flux incubated for 5 mins by FLIPR analysis; conditions: HEK293, 5 min
Striatal neuron = experiment: Neurophysiological effect on Wistar rat Striatal neuron assessed as decrease in potential firing frequency at 1 uM and measured after 3 mins by Whole-cell patch clamp assay; assay type: functional, cell-based
[4] = Toxicity in Wistar rat Striatal neuron assessed as cell viability at 1 uM; assay type: cell-based
Rattus norvegicus = experiment: Effect on haloperidol-induced […] activity in Sprague-Dawley rat model assessed as locomotor activity at 3 mg/kg, po and measured after 60 mins; assay type: functional, organism-based

Compound | microsomal CLint at 1 µM [1] [µL/min/mg] | EC50 [2] [nM] | EC50 [3] [nM] | further results
C[C@@H](Nc1ccc(-c2ccc3oc(=O)n(C)c3c2)cn1)c1ccc(F)cc1 | 3.9 | – | – | –
Cc1cncc(-c2ccc(N[C@H](C)c3ccc(F)cc3)nc2)c1 | 234 | – | – | –
C[C@@H](Nc1ccc(-c2cncc(C(F)(F)F)c2)cn1)c1ccc(F)cc1 | 5.2 | – | – | –
C[C@@H](Nc1cnc(-c2cncc(CC(F)F)c2)cn1)c1ccc(F)cc1 | 16 | 0.439 | 4.13 | Activity (Striatal neuron): Active; Activity [4]: Non-Toxic
CCn1c(=O)c2c(nc(/C=C/c3ccc(OC)c(OC)c3)n2C)n(CC)c1=O | – | – | – | Activity (Rattus norvegicus): Active
C[C@@H](Nc1ccc(-c2cnn(C)c2)cn1)c1ccc(F)cc1 | – | 427 | 3510 | –

Further lines, with some results ahead:

microsomal CLint at 1 µM [1] [µL/min/mg] | EC50 [2] [nM] | EC50 [3] [nM] | Compound | further results
78 | 3.01 | 32.5 | CCc1cncc(-c2cnc(N[C@H](C)c3ccc(F)cc3)cn2)c1 | –
6.4 | – | – | C[C@@H](Nc1ncc(-c2cncc(CC(F)(F)F)c2)nn1)c1ccc(F)cc1 | –
48 | – | – | CCc1cncc(-c2ccc(N[C@H](C)c3ccc(F)cc3)nc2)c1 | –
3.8 | 85.1 | 716 | C[C@@H](Nc1ccc(-c2cncc(S(C)(=O)=O)c2)cn1)c1ccc(F)cc1 | –
10 | 13.8 | 514 | C[C@@H](Nc1ccc(-c2cncc(C3CC3)c2)cn1)c1ccc(F)cc1 | –
2 | – | – | C[C@@H](Nc1ccc(-c2cncc(S(C)(=N)=O)c2)cn1)c1ccc(F)cc1 (stereo not given in full) | –
– | 573 | 2400 | C[C@@H](Nc1ccc(-c2ccc3oc(=O)[nH]c3c2)cn1)c1ccc(F)cc1 | –
